Experiment: Dissolution of steroid with alpha-cyclodextrin in aqueous suspension
Type: physicochemical
Conditions: 120 mg alpha-cyclodextrin added to 5 ml aqueous suspension, room temperature, agitated for several minutes
Experimental: 120 mg of alpha-cyclodextrin was added to 5 ml of an aqueous suspension of dexamethasone at room temperature.

With `C[C@@H]1C[C@H]2[C@@H]3CCC4=CC(=O)C=C[C@]4(C)[C@@]3(F)[C@@H](O)C[C@]2(C)[C@@]1(O)C(=O)CO` [dexamethasone, 9-Fluoro-11β,17,21-trihydroxy-16α-methylpregna-1,4-diene-3,20-dione] the “dissolution of steroid with alpha-cyclodextrin” value was “did not dissolve and remained in suspension”.

From US4383992A, “Water-soluble steroid compounds” (priority 1982, dated 1983)
